Data taken from ChEMBL document CHEMBL1773033, “Cyclic lactam hybrid α-MSH/Agouti-related protein (AGRP) analogues with nanomolar range binding affinities at the human melanocortin receptors” (Bioorg Med Chem Lett, 2011).
Positions of bridges follow the written chain, without caps; N, C: chain ends. Non-standard residues stand in square brackets, D forms with d. Residues, ends and D or L forms follow the SMILES beside them.

Legend:
Melanocortin receptor 3 [1] = target: T1, Melanocortin receptor 3 (Homo sapiens, UniProt P41968); assay: Displacement of [125I]-NDP-alpha-MSH from human MC3R expressed in HEK293 cells after 40 mins by Wallac 1470 gamma counting; format: cell-based
T1 sequence (P41968 whole entry): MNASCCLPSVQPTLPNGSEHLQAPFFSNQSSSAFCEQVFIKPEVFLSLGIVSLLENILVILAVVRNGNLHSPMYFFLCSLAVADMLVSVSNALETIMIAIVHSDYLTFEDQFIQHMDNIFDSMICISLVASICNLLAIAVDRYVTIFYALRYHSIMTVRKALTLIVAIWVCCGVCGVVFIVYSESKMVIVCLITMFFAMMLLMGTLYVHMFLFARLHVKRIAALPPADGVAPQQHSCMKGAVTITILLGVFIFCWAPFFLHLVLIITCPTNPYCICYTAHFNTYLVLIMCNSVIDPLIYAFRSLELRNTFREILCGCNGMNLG

[2] = target: T2, Melanocyte-stimulating hormone receptor (Homo sapiens, UniProt Q01726); assay: Displacement of [125I]-NDP-alpha-MSH from human MC1R expressed in HEK293 cells at 10 uM after 40 mins by Wallac 1470 gamma counting relative to Ac-Nle-c[Asp-His-D-Phe-Arg-Trp-Lys]-NH2; format: cell-based
Target sequence in this assay (Q01726 whole entry, looked up): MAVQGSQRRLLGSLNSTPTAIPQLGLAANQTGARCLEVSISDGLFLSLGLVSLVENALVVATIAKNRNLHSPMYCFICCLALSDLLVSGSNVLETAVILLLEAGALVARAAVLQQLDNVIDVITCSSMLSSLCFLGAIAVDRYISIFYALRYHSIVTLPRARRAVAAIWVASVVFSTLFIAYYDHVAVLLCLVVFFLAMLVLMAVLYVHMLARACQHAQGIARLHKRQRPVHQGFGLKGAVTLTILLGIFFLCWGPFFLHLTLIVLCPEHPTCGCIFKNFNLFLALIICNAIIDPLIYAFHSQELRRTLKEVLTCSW

Melanocortin receptor 4 [3] = target: T3, Melanocortin receptor 4 (Homo sapiens, UniProt P32245); assay: Displacement of [125I]-NDP-alpha-MSH from human MC4R expressed in HEK293 cells at 10 uM after 40 mins by Wallac 1470 gamma counting relative to Ac-Nle-c[Asp-His-D-Phe-Arg-Trp-Lys]-NH2; format: cell-based
T3 sequence (P32245 whole entry): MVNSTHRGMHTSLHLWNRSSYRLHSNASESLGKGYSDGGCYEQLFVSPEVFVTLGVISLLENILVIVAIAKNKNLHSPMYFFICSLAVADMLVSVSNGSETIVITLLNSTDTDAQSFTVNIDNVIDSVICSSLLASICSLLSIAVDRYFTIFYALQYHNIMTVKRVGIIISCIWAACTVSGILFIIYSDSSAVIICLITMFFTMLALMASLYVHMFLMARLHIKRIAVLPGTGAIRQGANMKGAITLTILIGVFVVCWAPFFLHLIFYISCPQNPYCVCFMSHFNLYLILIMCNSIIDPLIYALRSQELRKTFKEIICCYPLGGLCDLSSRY

Melanocortin receptor 5 [4] = target: T4, Melanocortin receptor 5 (Homo sapiens, UniProt P33032); assay: Agonist activity at human MC5R expressed in HEK293 cells assessed as increase in intracellular cAMP level at 10 uM after 3 mins by luminescence counter relative to Ac-Nle-c[Asp-His-D-Phe-Arg-Trp-Lys]-NH2; format: functional, cell-based
T4 sequence (P33032 whole entry): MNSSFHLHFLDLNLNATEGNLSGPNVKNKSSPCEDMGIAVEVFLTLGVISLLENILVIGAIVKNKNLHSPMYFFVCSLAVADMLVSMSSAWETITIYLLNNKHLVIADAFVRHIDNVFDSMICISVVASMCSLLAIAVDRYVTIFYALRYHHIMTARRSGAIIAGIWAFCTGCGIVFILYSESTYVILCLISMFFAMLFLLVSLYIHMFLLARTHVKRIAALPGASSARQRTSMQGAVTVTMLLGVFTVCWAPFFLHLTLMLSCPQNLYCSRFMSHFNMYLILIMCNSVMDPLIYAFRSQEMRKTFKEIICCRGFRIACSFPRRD

[5] = target: T2, Melanocyte-stimulating hormone receptor; assay: Displacement of [125I]-NDP-alpha-MSH from human MC1R expressed in HEK293 cells after 40 mins by Wallac 1470 gamma counting; format: cell-based
Target sequence in this assay (Q01726 whole entry): as the sequence (Q01726 whole entry, looked up) above

Melanocortin receptor 4 [6] = target: T3, Melanocortin receptor 4; assay: Agonist activity at human MC4R expressed in HEK293 cells assessed as intracellular cAMP accumulation; format: functional, cell-based
Melanocortin receptor 5 [7] = target: T4, Melanocortin receptor 5; assay: Displacement of [125I]-NDP-alpha-MSH from human MC5R expressed in HEK293 cells at 10 uM after 40 mins by Wallac 1470 gamma counting relative to Ac-Nle-c[Asp-His-D-Phe-Arg-Trp-Lys]-NH2; format: cell-based
Melanocortin receptor 3 [8] = target: T1, Melanocortin receptor 3; assay: Displacement of [125I]-NDP-alpha-MSH from human MC3R expressed in HEK293 cells at 10 uM after 40 mins by Wallac 1470 gamma counting relative to Ac-Nle-c[Asp-His-D-Phe-Arg-Trp-Lys]-NH2; format: cell-based
Melanocortin receptor 4 [9] = target: T3, Melanocortin receptor 4; assay: Agonist activity at human MC4R expressed in HEK293 cells assessed as increase in intracellular cAMP level at 10 uM after 3 mins by luminescence counter relative to Ac-Nle-c[Asp-His-D-Phe-Arg-Trp-Lys]-NH2; format: functional, cell-based
Melanocortin receptor 5 [10] = target: T4, Melanocortin receptor 5; assay: Displacement of [125I]-NDP-alpha-MSH from human MC5R expressed in HEK293 cells after 40 mins by Wallac 1470 gamma counting; format: cell-based
Melanocortin receptor 3 [11] = target: T1, Melanocortin receptor 3; assay: Agonist activity at human MC3R expressed in HEK293 cells assessed as intracellular cAMP accumulation; format: functional, cell-based
Melanocortin receptor 4 [12] = target: T3, Melanocortin receptor 4; assay: Displacement of [125I]-NDP-alpha-MSH from human MC4R expressed in HEK293 cells after 40 mins by Wallac 1470 gamma counting; format: cell-based
[13] = target: T2, Melanocyte-stimulating hormone receptor; assay: Agonist activity at human MC1R expressed in HEK293 cells assessed as increase in intracellular cAMP level at 10 uM after 3 mins by luminescence counter relative to Ac-Nle-c[Asp-His-D-Phe-Arg-Trp-Lys]-NH2; format: functional, cell-based
Target sequence in this assay (Q01726 whole entry, looked up): as above

Melanocortin receptor 5 [14] = target: T4, Melanocortin receptor 5; assay: Agonist activity at human MC5R expressed in HEK293 cells assessed as intracellular cAMP accumulation; format: functional, cell-based
Melanocortin receptor 3 [15] = target: T1, Melanocortin receptor 3; assay: Agonist activity at human MC3R expressed in HEK293 cells assessed as increase in intracellular cAMP level at 10 uM after 3 mins by luminescence counter relative to Ac-Nle-c[Asp-His-D-Phe-Arg-Trp-Lys]-NH2; format: functional, cell-based
[16] = target: T2, Melanocyte-stimulating hormone receptor; assay: Agonist activity at human MC1R expressed in HEK293 cells assessed as increase in intracellular cAMP accumulation; format: functional, cell-based
Target sequence in this assay (Q01726 whole entry): as the sequence (Q01726 whole entry, looked up) above

| IC50 (Melanocortin receptor 3 [1]) | Activity [2] [%] | Activity (Melanocortin receptor 4 [3]) [%] | Activity (Melanocortin receptor 5 [4]) [%] | IC50 [5] | EC50 (Melanocortin receptor 4 [6]) | Activity (Melanocortin receptor 5 [7]) [%] | Activity (Melanocortin receptor 3 [8]) [%] | Activity (Melanocortin receptor 4 [9]) [%] | IC50 (Melanocortin receptor 5 [10]) | EC50 (Melanocortin receptor 3 [11]) | IC50 (Melanocortin receptor 4 [12]) | Activity [13] [%] | EC50 (Melanocortin receptor 5 [14]) | Activity (Melanocortin receptor 3 [15]) [%] | EC50 [16] | SMILES |
| --- | --- | --- | --- | --- | --- | --- | --- | --- | --- | --- | --- | --- | --- | --- | --- | --- |
| Not Active | 0 | 0 | 0 | Not Active | Not Active | 0 | 0 | 0 | Not Active | Not Active | Not Active | 0 | Not Active | 0 | Not Active | CC(=O)N[C@H]1CC(=O)NCCCC[C@@H](C(N)=O)NC(=O)[C@@H](CCC(N)=O)NC(=O)[C@H](Cc2ccccc2)NC(=O)[C@H](Cc2c[nH]c3ccccc23)NC(=O)[C@H](CCCNC(=N)N)NC1=O (Ac-DRWF[dQ]K-NH2; lactam 1-6) |
| Not Active | 0 | 0 | 0 | Not Active | Not Active | 0 | 0 | 0 | Not Active | Not Active | Not Active | 0 | Not Active | 0 | Not Active | CC(=O)N[C@H]1CC(=O)NCCCC[C@@H](C(N)=O)NC(=O)[C@@H](CCCNC(=N)N)NC(=O)[C@H](Cc2ccccc2)NC(=O)[C@H](Cc2c[nH]c3ccccc23)NC(=O)[C@H](CCCNC(=N)N)NC1=O (Ac-DRWF[dR]K-NH2; lactam 1-6) |
